Laboratory results: patent US7723320B2, “Use of estrogen compounds to increase libido in women” (Pantarhei Bioscience B.V., priority 2001, dated 2010)
Read-outs that look alike come from different tables or passages of the source.

Columns and labels:
[1] = biological target: T1, human sex Hormone Binding Globulin (SHBG) (Homo sapiens, UniProt P04278); assay: Competitive steroid-binding assay, SHBG; conditions: [3H]DHT or [3H]estradiol as labeled ligands
T1 construct: made in house; host or cells: transgenic mouse (purified from serum)
T1 sequence (P04278 30-402): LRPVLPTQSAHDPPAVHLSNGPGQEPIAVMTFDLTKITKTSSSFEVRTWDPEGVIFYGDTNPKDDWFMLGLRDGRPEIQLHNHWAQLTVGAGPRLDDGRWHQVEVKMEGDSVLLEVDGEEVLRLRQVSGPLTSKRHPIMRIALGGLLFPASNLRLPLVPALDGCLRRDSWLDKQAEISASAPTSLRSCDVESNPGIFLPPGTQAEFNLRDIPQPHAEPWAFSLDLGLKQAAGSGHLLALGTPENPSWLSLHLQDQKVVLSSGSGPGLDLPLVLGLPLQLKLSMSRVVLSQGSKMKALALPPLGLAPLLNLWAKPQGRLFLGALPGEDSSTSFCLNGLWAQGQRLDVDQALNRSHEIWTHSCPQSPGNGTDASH
Experimental: Human SHBG was treated for 30 min at room temperature with a dextran-coated charcoal (DCC) suspension in phosphate buffered saline (PBS) to remove any steroid ligand. After centrifugation (2,000×g for 10 min) to sediment the DCC, the supernatant containing the human SHBG was diluted in PBS to a concentration of 1 nM based on its steroid binding capacity.
The average amounts of [^3H]labeled ligands bound to SHBG at each concentration of competitor (B) were expressed as a percentage of the average amounts of [^3H]labeled ligands bound to SHBG in the absence of competitor (B0), and were plotted against the concentration of competitor in each assay tube.

[2] = biological target: T2, human ERβ (Homo sapiens, UniProt Q92731); assay: Competitive steroid binding assay, ERβ; conditions: read-out: Percent inhibition of specific binding in ERβ steroid binding assay; for inhibition at 0.03 µM: E4 0.03 μM; for inhibition at 0.1 µM: E4 0.1 μM; for inhibition at 0.3 µM: E4 0.3 μM; for inhibition at 1 µM: E4 1 μM
T2 construct: made in house; host or cells: Sf9 insect cells

[3] = biological target: T3, human ERα (Homo sapiens, UniProt P03372); assay: Competitive steroid binding assay, ERα; conditions: for inhibition at 0.003 µM: E4 3 nM; for inhibition at 0.01 µM: E4 10 nM; for inhibition at 0.03 µM: E4 0.03 μM; for inhibition at 0.1 µM: E4 0.1 μM; for inhibition at 0.3 µM: E4 0.3 μM
T3 sequence (P03372 1-595): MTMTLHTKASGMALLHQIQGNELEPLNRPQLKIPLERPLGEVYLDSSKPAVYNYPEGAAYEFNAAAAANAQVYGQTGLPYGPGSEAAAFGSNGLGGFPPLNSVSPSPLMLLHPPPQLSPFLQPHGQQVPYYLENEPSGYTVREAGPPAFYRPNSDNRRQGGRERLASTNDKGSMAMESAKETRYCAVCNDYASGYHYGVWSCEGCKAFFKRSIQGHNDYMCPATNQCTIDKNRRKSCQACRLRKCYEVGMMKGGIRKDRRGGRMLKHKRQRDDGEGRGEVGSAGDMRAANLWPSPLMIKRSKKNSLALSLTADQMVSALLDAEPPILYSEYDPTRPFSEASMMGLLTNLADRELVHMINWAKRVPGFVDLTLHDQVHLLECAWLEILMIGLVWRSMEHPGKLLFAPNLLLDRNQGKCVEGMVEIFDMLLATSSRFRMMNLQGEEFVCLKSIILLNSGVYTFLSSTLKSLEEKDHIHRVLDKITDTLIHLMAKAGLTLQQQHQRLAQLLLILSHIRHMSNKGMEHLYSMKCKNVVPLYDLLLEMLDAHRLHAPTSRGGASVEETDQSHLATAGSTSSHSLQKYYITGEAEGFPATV

[4] = tested on: estrogen receptors in the human endometrium; conditions: Tseng et al., 1978; cited from earlier work
[5] = biological target: T4, estrogen receptor in the human endometrium (Homo sapiens, UniProt P03372); conditions: Tseng et al., 1976; cited from earlier work
T4 construct: estrogen receptors in the human endometrium; host or cells: human endometrium (nuclei)
T4 sequence (P03372 1-595): T3 sequence (P03372 1-595)

[6] = Test 1, read-out: Percent inhibition of specific binding in ERα steroid binding assay
[7] = Test 2, read-out: Percent inhibition of specific binding in ERα steroid binding assay
[8] = Test 3, read-out: Percent inhibition of specific binding in ERα steroid binding assay

T2 sequence (Q92731 whole entry): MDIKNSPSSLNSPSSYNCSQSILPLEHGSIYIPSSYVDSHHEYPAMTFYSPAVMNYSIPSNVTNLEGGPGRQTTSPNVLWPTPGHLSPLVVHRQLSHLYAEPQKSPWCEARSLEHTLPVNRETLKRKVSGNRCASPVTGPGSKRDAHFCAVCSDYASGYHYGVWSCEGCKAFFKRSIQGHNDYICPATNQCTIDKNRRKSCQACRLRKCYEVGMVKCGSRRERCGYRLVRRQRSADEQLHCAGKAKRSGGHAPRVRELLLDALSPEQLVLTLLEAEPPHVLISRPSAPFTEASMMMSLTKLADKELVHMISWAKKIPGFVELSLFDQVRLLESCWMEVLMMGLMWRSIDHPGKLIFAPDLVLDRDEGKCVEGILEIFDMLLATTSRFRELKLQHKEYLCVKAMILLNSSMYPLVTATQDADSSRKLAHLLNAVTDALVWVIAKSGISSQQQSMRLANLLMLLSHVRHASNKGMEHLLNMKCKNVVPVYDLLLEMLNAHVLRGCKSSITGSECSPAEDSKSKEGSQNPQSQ

**Q.** Which results are given for `C[C@]12CC[C@@H]3c4ccc(O)cc4CC[C@H]3[C@@H]1[C@@H](O)[C@@H](O)[C@@H]2O` [E4, 1,3,5(10)-estratrien-3,15α,16α,17β-tetrol]?
**A.** relative binding affinity for human SHBG [1]: does not bind at all; inhibition at 0.03 µM ([2]; Test 1): 19%; inhibition at 0.03 µM ([2]; Test 2): 25%; inhibition at 0.03 µM ([2]; Test 3): 30%; inhibition at 0.1 µM ([2]; Test 1): 56%; inhibition at 0.1 µM ([2]; Test 2): 54%; inhibition at 0.1 µM ([2]; Test 3): 50%; inhibition at 0.3 µM ([2]; Test 1): 74%; inhibition at 0.3 µM ([2]; Test 2): 74%; inhibition at 0.3 µM ([2]; Test 3): 77%; inhibition at 1 µM ([2]; Test 1): 87%; inhibition at 1 µM ([2]; Test 2): 90%; inhibition at 1 µM ([2]; Test 3): 95%; inhibition at 0.003 µM [3, 6]: 26%; inhibition at 0.003 µM [3, 7]: 17%; inhibition at 0.003 µM [3, 8]: 11%; inhibition at 0.01 µM [3, 6]: 43%; inhibition at 0.01 µM [3, 7]: 32%; inhibition at 0.01 µM [3, 8]: 28%; inhibition at 0.03 µM [3, 6]: 64%; inhibition at 0.03 µM [3, 7]: 66%; inhibition at 0.03 µM [3, 8]: 63%; inhibition at 0.1 µM [3, 6]: 83%; inhibition at 0.1 µM [3, 7]: 85%; inhibition at 0.1 µM [3, 8]: 86%; inhibition at 0.3 µM [3, 6]: 92%; inhibition at 0.3 µM [3, 7]: 94%; inhibition at 0.3 µM [3, 8]: 101%; inhibition at 1 µM ([3]; E4 1 μM, Test 1, read-out: Percent inhibition of specific binding in ERα steroid binding assay): 98%; Relative ERα/ERβ preference ([3]; from Ki values for ERα and ERβ): 400%; relative binding to estrogen receptors, of 17β-estradiol [4]: 1.5%; relative binding constant compared to 17β-estradiol (100%) [5]: 6.25%
